Patent US20240350647A1, “STING SENSITIZING AGENTS” (STipe Therapeutics ApS, priority 2023, published 2024)
“Also recorded” adds a separate entry of the source. Where a SMILES comes first, the peptide text is derived from it. Bridges are numbered along the chain shown (N, C = ends). [ ]: non-standard residue; d: D form. The star is where a group is joined. C16 diacid = O=C(O)CCCCCCCCCCCCCCC(=O)*; AEEA = NCCOCCOCC(=O)O

Experiments:
[1] = In vitro metabolic stability in fresh blood; format: in vitro ADME; details: 37° C.; mouse, rat and human blood
Experimental: Fresh blood from mouse (CD-1) and rat (Wistar) was collected from lab animals. Human blood was collected from healthy donors at local hospital or acquired from commercial vendor (BioIVT). Blood from non-human primates (Cynomolgus macaque) was acquired from commercial vendor (BioTVT).
For mouse, rat and human blood, 5.0 μg/mL of tested agent (except Agent 1 in human blood) was diluted from stock solution in DMSO to a final DMSO concentration of 0.5% and incubated in 1000 μL of blood at 37° C., in duplicate. At 0, 5, 15, 30, and 60 minutes, 180 μL was sampled and centrifuged at 2000 g for 1 min, 80 μL supernatant was taken and diluted 1:1 with water followed by precipitation with acetonitrile containing 5% TFA (internal standard 100 nM leucine enkephalin+Glu1 fibrinopeptide B). The obtained supernatant 60 μL was further diluted with 30 μL 20% DMSO in ultra-pure water and submitted for immediate analysis by LC-MS/MS. The controls were 1 μM propantheline bromide (mouse, human) or 1 μM enalapril (rat).
Incubation of Agent 1 in blood from human and monkey was performed in a similar manner. A 25 μM solution of Agent 1 was prepared with 5% DMSO and 22.5% methanol in water. […]
The peak areas were determined against a calibration curve and the T0 sample was set to 100%. The disappearance rate (k) was calculated and the half-life for each incubation was determined (t½=ln 2/k).

[2] = Pharmacokinetics after intravenous bolus, mouse; format: in vivo; details: 10 mg/kg bolus IV
Experimental: Test agents were formulated in 2% (v/v) propylene glycol in 25 mM HEPES, pH 7.4 and administered with a bolus injection at 10.0 mg/kg via the tail vain to male CD-1 mice (Charles River Laboratories) or male Wistar rats (Charles River Laboratories), or with a 30-min intravenous infusion at 4 mg/kg to male cynomolgus monkeys.
Blood samples were collected at 2.5, 5, 10, 30, 60, 120, 240 and 480 minutes after administration (mouse and rat), or at 5, 15, 30, 60, 120, 240, 360, 480 and 1440 min (Agent 1) or at 5, 15, 30, 45, 60, 90, 150, 240 and 480 min (Agent 2) after the start of infusion in monkeys. Samples were immediately mixed with a protease inhibitor cocktail (Roche cOmplete™ EDTA-free) before being cooled and centrifuged for plasma separation. Plasma samples were frozen and stored at −20° C. until analysis.
To rat samples, blank rat plasma was added up to a volume of 100 μl. […]
Mouse and rat samples: Separation was done with a C18 column (Phenomenex Kinetex XB—C18 (100×2.1 mm, 1.7 μm)), using a gradient between 1% formic acid in water and 2% DMSO in acetonitrile (Agent 1) or acetonitrile (Agent 2). […] The range of quantitation was 4-20,000 ng/mL.
Non-compartmental PK analysis on plasma concentration versus time data was analyzed by non-compartmental approaches using the WinNonlin software program (version 6.3 or above, Pharsight, Mountain View, CA). […]

With `CC[C@H](C)[C@H](NC(=O)[C@H](CC(N)=O)NC(=O)[C@H](CCCCN)NC(=O)[C@H](C)NC(=O)[C@H](CCCCN)NC(=O)[C@H](CCCCN)NC(=O)COCCOCCNC(=O)COCCOCCNC(=O)CCCCCCCCCCCCCCC(=O)O)C(=O)N[C@H](C(=O)N[C@@H](CC(C)C)C(=O)N[C@@H](CC(C)C)C(=O)N[C@@H](CCCCN)C(=O)NCC(=O)N[C@@H](CC(C)C)C(=O)N[C@@H](CCC(=O)O)C(=O)N[C@H](C(=O)N[C@H](C(=O)N[C@@H](CC(N)=O)C(=O)N[C@@H](CC(=O)O)C(=O)N[C@@H](Cc1c[nH]c2ccccc12)C(=O)N[C@@H](Cc1c[nH]cn1)C(=O)N[C@@H](Cc1ccccc1)C(=O)N[C@H]1CSSC[C@@H](C(N)=O)NC(=O)[C@@H](CCCNC(=N)N)NC(=O)[C@H](CCCNC(=N)N)NC(=O)[C@@H](CCCCN)NC(=O)[C@H](CCCCN)NC(=O)[C@@H](CCCNC(=N)N)NC(=O)CNC(=O)[C@@H](CCCNC(=N)N)NC(=O)[C@H](CCCNC(=N)N)NC(=O)[C@@H](CCCNC(=N)N)NC1=O)[C@@H](C)CC)C(C)C)C(C)C` [Agent 1] ({C16 diacid-AEEA-AEEA}-KKAKNIVLLKGLEVINDWHFC[dR]R[dR]G[dR]K[dK]R[dR]C-NH2; disulfide 21-31) as the compound, how does the “metabolic stability in fresh blood (half-life) compared to Agent 2 and Agent 3” value [1] read?
The value was “better stability; also recorded: considerably reduces the metabolism”.

And the “increase in exposure (AUC0-inf) compared to Agent 2, at equal dose” value [2]?
The value was “approximately 32 fold”.
